Laboratory results published in US20250304596A1, “PYRAZINE DERIVATIVES AND USES THEREOF” (FOGHORN THERAPEUTICS INC., priority 2022, published 2025).

Legend:
HiBit-BRM fusion protein = target: T1, HiBit-BRM fusion protein (Homo sapiens, UniProt P51531); assay: HiBiT-BRM cell-based degradation assay (Nano-Glo HiBiT Lytic Detection, 24 h); details: stable HeLa cell line expressing HiBiT-BRM; for DC50: read-out: BRM HiBit Degradation IC50
T1 construct: expressed in transfected cells
Description: (§1) Procedure: A stable HeLa cell line expressing HiBiT-BRM was generated. On day 0, 5000 cells were seeded in 40 μL of media into each well of 384-well cell culture plates. On day 1, cells were treated with 120 nL DMSO or 120 nL of 3-fold serially DMSO-diluted compounds (10 points in duplicate with 30 μM as final top dose). Subsequently plates were incubated for 24 h in a standard tissue culture incubator and equilibrated at room temperature for 15 minutes. Nano-Glo HiBiT Lytic Detection System (Promega N3050) reagent was freshly prepared and 20 ul was added to each well. Upon addition of this LgBit-containing reagent, the HiBiT and LgBiT proteins associate to form the luminescent NanoBiT Iuciferase. The plates were shaken for 10 minutes at room temperature and the bioluminescence read using an EnVision plate reader (PerkinElmer).
(§2) The degradation % was calculated using the following formula: % degradation=100%-100%×(LumSample−LumLC)/(LumHC−LumLC). DMSO treated cells are employed as High Control (HC) and 2 μM of a known BRM/BRG1 degrader standard treated cells are employed as Low Control (LC).

[1] = target: T2, HiBit-BRG1 fusion protein (Homo sapiens, UniProt P51532); assay: HiBiT-BRG1 cell-based degradation assay (Nano-Glo HiBiT Lytic Detection, 24 h); details: stable HeLa cell line expressing HiBit-BRG1 and LgBit; for Dmax: read-out: BRG1 HiBit Degradation Maximum (%); for DC50: read-out: BRMG1 HiBit Degradation IC50
T2 construct: expressed in transfected cells
T2 sequence (P51532 whole entry, the tested form may be a part): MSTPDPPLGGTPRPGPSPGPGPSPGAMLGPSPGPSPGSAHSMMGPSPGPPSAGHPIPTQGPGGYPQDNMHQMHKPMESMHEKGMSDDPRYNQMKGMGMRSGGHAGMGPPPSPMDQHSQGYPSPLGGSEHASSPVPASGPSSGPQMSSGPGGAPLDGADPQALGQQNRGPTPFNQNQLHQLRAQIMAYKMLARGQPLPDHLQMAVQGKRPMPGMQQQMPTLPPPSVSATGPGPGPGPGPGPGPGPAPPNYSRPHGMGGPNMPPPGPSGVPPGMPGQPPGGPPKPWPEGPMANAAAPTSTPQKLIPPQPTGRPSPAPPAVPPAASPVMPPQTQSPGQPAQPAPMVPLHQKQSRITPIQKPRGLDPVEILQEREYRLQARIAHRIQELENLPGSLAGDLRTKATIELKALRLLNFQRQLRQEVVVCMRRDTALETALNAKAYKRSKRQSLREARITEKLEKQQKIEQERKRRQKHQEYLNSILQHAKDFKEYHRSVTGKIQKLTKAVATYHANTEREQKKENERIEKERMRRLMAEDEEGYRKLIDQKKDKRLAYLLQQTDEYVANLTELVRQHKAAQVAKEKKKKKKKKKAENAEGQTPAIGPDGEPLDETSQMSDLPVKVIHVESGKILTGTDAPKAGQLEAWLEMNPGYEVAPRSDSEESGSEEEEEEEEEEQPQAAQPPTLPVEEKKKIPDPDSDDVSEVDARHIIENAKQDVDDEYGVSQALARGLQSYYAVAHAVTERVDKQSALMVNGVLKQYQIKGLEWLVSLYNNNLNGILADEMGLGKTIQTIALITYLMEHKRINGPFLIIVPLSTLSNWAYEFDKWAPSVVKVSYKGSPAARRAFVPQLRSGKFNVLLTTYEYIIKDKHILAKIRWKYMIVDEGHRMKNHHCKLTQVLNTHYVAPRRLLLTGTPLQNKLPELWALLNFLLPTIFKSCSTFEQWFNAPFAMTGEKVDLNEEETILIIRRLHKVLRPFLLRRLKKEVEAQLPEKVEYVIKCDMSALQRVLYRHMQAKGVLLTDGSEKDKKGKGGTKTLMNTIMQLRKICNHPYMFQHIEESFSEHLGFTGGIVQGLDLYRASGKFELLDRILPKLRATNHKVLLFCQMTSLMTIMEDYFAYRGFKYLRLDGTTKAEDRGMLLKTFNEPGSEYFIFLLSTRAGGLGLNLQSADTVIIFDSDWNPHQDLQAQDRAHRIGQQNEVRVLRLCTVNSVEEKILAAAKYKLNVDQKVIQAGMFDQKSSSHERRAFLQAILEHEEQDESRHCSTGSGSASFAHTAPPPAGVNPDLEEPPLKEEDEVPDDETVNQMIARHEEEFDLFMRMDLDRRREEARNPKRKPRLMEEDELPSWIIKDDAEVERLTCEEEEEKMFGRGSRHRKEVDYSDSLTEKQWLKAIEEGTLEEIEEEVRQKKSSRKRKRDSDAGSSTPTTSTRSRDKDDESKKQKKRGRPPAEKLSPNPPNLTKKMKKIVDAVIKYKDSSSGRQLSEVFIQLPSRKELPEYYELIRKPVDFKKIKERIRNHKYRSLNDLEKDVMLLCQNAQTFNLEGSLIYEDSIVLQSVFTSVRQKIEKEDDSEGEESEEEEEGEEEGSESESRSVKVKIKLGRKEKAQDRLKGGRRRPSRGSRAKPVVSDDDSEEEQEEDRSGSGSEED
Description: as §1
For measurement of BRG1 degradation, a stable HeLa cell line expressing HiBit-BRG1 and LgBit was generated. The same protocol as above was then followed.
as §2

T1 sequence (P51531 whole entry, the tested form may be a part): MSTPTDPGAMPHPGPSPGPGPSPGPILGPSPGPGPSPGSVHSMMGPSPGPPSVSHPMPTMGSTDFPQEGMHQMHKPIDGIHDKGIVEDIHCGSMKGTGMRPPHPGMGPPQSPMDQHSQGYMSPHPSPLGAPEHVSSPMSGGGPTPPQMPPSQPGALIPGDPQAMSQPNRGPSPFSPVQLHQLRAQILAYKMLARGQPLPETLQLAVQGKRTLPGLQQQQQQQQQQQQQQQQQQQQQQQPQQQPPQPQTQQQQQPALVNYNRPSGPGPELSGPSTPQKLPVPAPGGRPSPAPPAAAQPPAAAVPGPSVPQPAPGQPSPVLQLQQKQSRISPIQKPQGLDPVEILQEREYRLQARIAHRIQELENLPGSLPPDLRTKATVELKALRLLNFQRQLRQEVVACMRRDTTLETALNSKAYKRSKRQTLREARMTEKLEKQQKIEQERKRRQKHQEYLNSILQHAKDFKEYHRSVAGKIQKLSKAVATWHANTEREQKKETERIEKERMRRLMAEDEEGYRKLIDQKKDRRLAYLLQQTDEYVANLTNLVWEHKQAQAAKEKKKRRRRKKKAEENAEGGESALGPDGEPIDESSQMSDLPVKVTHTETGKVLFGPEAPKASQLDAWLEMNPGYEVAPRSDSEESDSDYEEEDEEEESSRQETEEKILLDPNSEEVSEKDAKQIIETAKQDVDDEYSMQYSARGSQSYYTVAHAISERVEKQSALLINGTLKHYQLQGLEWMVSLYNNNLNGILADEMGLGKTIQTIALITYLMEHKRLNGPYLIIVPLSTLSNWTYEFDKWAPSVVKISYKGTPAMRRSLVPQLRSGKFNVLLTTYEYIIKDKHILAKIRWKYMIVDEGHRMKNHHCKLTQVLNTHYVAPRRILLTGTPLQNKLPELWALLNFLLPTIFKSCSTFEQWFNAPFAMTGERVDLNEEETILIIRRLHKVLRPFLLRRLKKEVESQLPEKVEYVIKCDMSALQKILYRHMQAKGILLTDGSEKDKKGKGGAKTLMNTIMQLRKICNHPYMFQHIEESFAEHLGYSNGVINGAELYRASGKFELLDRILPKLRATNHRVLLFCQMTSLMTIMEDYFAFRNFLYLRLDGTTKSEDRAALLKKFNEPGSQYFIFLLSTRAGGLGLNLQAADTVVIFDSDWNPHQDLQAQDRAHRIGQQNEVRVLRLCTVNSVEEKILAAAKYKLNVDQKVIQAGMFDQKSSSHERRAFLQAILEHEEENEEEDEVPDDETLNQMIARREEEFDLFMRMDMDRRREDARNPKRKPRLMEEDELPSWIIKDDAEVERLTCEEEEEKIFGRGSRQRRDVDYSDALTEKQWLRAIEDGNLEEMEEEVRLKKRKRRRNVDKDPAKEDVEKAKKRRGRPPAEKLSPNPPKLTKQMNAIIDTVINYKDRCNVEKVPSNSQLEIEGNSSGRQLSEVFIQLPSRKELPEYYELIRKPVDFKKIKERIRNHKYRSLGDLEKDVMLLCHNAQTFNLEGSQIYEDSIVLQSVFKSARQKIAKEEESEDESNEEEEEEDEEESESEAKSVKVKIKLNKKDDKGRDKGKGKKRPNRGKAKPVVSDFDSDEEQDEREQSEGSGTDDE

Structure (SMILES): Cc1ncsc1-c1ccc([C@H](C)NC(=O)[C@@H]2C[C@@H](O)CN2C(=O)[C@@H](c2cc(N3CCC4(CC[C@@H](c5sc6nnc(-c7ccccc7O)cc6c5C)C4)CC3)no2)C(C)C)cc1 [Compound 77, (2S,4R)-4-hydroxy-1-((R)-2-(3-((R)-2-(3-(2-hydroxyphenyl)-5-methylthieno[2,3-c]pyridazin-6-yl)-8-azaspiro[4.5]decan-8-yl)isoxazol-5-yl)-3-methylbutanoyl)-N-((S)-1-(4-(4-methylthiazol-5-yl)phenyl)ethyl)pyrrolidine-2-carboxamide]
- BRM HiBit Degradation Maximum (%) (HiBit-BRM fusion protein): A (“A” indicates maximum degradation ≥75%)
- DC50 (HiBit-BRM fusion protein): < 10 nM
- Dmax [1]: > 50%
- DC50 [1]: > 100 nM

Structure (SMILES): Cc1nc(N2CC[C@@H](c3sc4nnc(-c5ccccc5O)cc4c3C)C2)ccc1-c1cc([C@H](C(=O)N2C[C@H](O)C[C@H]2C(=O)N[C@@H](C)c2ccc(-c3scnc3C)cc2)C(C)C)on1 [Compound 94, (2S,4R)-4-hydroxy-1-((R)-2-(3-(6-((R)-3-(3-(2-hydroxyphenyl)-5-methylthieno[2,3-c]pyridazin-6-yl)pyrrolidin-1-yl)-2-methylpyridin-3-yl)isoxazol-5-yl)-3-methylbutanoyl)-N-((S)-1-(4-(4-methylthiazol-5-yl)phenyl)ethyl)pyrrolidine-2-carboxamide]
- BRM HiBit Degradation Maximum (%) (HiBit-BRM fusion protein): A (“A” indicates maximum degradation ≥75%)
- DC50 (HiBit-BRM fusion protein): > 10 nM
- Dmax [1]: < 50%

Structure (SMILES): Cc1ncsc1-c1ccc([C@H](C)NC(=O)[C@@H]2C[C@@H](O)CN2C(=O)[C@@H](c2cc(C3CCN(c4ncc(-c5sc6nnc(-c7ccccc7O)cc6c5C)cn4)CC3)no2)C(C)C)cc1 [Compound 32, (2S,4R)-4-hydroxy-1-((R)-2-(3-(1-(5-(3-(2-hydroxyphenyl)-5-methylthieno[2,3-c]pyridazin-6-yl)pyrimidin-2-yl)piperidin-4-yl)isoxazol-5-yl)-3-methylbutanoyl)-N-((S)-1-(4-(4-methylthiazol-5-yl)phenyl)ethyl)pyrrolidine-2-carboxamide]
- BRM HiBit Degradation Maximum (%) (HiBit-BRM fusion protein): C (“C” indicates maximum degradation <50%)
- DC50 (HiBit-BRM fusion protein): > 1000 nM
- Dmax [1]: < 50%
- DC50 [1]: > 1000 nM

Structure (SMILES): Cc1ncsc1-c1ccc([C@H](C)NC(=O)[C@@H]2C[C@@H](O)CN2C(=O)[C@@H](c2cc(-c3cnc(N4CC(c5sc6nnc(-c7ccccc7O)cc6c5C)C4)nc3)no2)C(C)C)cc1 (single isomer, unassigned) [Compound 63]
- BRM HiBit Degradation Maximum (%) (HiBit-BRM fusion protein): A (“A” indicates maximum degradation ≥75%)
- DC50 (HiBit-BRM fusion protein): < 10 nM
- Dmax [1]: < 50%
- DC50 [1]: > 1000 nM

Structure (SMILES): Cc1ncsc1-c1ccc([C@H](C)NC(=O)[C@@H]2C[C@@H](O)CN2C(=O)[C@@H](c2cc(-c3ccnc(N4CC[C@@H](c5sc6nnc(-c7ccccc7O)cc6c5C)C4)n3)no2)C(C)C)cc1 [Compound 7, (2S,4R)-4-hydroxy-1-((R)-2-(3-(2-((R)-3-(3-(2-hydroxyphenyl)-5-methylthieno[2,3-c]pyridazin-6-yl)pyrrolidin-1-yl)pyrimidin-4-yl)isoxazol-5-yl)-3-methylbutanoyl)-N-((S)-1-(4-(4-methylthiazol-5-yl)phenyl)ethyl)pyrrolidine-2-carboxamide]
- BRM HiBit Degradation Maximum (%) (HiBit-BRM fusion protein): C (“C” indicates maximum degradation <50%)
- DC50 (HiBit-BRM fusion protein): > 1000 nM
- Dmax [1]: < 50%
- DC50 [1]: > 1000 nM

Structure (SMILES): Cc1ncsc1-c1ccc([C@H](C)NC(=O)[C@@H]2C[C@@H](O)CN2C(=O)[C@@H](c2cc(N3CCC4(CCC(c5sc6nnc(-c7ccccc7O)cc6c5C)CC4)CC3)no2)C(C)C)cc1 [Compound 85, (2S,4R)-4-hydroxy-1-((R)-2-(3-(9-(3-(2-hydroxyphenyl)-5-methylthieno[2,3-c]pyridazin-6-yl)-3-azaspiro[5.5]undecan-3-yl)isoxazol-5-yl)-3-methylbutanoyl)-N-((S)-1-(4-(4-methylthiazol-5-yl)phenyl)ethyl)pyrrolidine-2-carboxamide]
- BRM HiBit Degradation Maximum (%) (HiBit-BRM fusion protein): A (“A” indicates maximum degradation ≥75%)
- DC50 (HiBit-BRM fusion protein): > 10 nM
- Dmax [1]: < 50%

Structure (SMILES): Cc1ncsc1-c1ccc([C@H](C)NC(=O)[C@@H]2C[C@@H](O)CN2C(=O)[C@@H](c2cc(N3CCC(c4cnc(N5CCC(c6sc7nnc(-c8ccccc8O)cc7c6C)CC5)nc4)CC3)no2)C(C)C)cc1 (single isomer, unassigned) [Compound 60]
- BRM HiBit Degradation Maximum (%) (HiBit-BRM fusion protein): A (“A” indicates maximum degradation ≥75%)
- DC50 (HiBit-BRM fusion protein): < 10 nM
- Dmax [1]: > 50%
- DC50 [1]: > 10 nM

Structure (SMILES): Cc1ncsc1-c1ccc([C@H](C)NC(=O)[C@@H]2C[C@@H](O)CN2C(=O)[C@@H](c2cc(N3CCC(c4sc5nnc(-c6ccccc6O)cc5c4C)CC3)no2)C(C)C)cc1 [Compound 56, (2S,4R)-4-hydroxy-1-((R)-2-(3-(4-(3-(2-hydroxyphenyl)-5-methylthieno[2,3-c]pyridazin-6-yl)piperidin-1-yl)isoxazol-5-yl)-3-methylbutanoyl)-N-((S)-1-(4-(4-methylthiazol-5-yl)phenyl)ethyl)pyrrolidine-2-carboxamide]
- BRM HiBit Degradation Maximum (%) (HiBit-BRM fusion protein): B (“B” indicates maximum degradation ≥50%)
- DC50 (HiBit-BRM fusion protein): > 10 nM
- Dmax [1]: < 50%
- DC50 [1]: > 1000 nM

Structure (SMILES): COc1cc(-c2cc([C@H](C(=O)N3C[C@H](O)C[C@H]3C(=O)N[C@@H](C)c3ccc(-c4scnc4C)cc3)C(C)C)on2)cnc1N1CCC(c2sc3nnc(-c4ccccc4O)cc3c2C)CC1 [Compound 90, (2S,4R)-4-hydroxy-1-((R)-2-(3-(6-(4-(3-(2-hydroxyphenyl)-5-methylthieno[2,3-c]pyridazin-6-yl)piperidin-1-yl)-5-methoxypyridin-3-yl)isoxazol-5-yl)-3-methylbutanoyl)-N-((S)-1-(4-(4-methylthiazol-5-yl)phenyl)ethyl)pyrrolidine-2-carboxamide]
- BRM HiBit Degradation Maximum (%) (HiBit-BRM fusion protein): A (“A” indicates maximum degradation ≥75%)
- DC50 (HiBit-BRM fusion protein): < 10 nM
- Dmax [1]: < 50%

Structure (SMILES): Cc1ncsc1-c1ccc([C@H](C)NC(=O)[C@@H]2C[C@@H](O)CN2C(=O)[C@@H](c2cc(-c3cnc(N4CC5(CC(c6sc7nnc(-c8ccccc8O)cc7c6C)C5)C4)nc3)no2)C(C)C)cc1 [Compound 46, (2S,4R)-4-hydroxy-1-((R)-2-(3-(2-(6-(3-(2-hydroxyphenyl)-5-methylthieno[2,3-c]pyridazin-6-yl)-2-azaspiro[3.3]heptan-2-yl)pyrimidin-5-yl)isoxazol-5-yl)-3-methylbutanoyl)-N-((S)-1-(4-(4-methylthiazol-5-yl)phenyl)ethyl)pyrrolidine-2-carboxamide]
- BRM HiBit Degradation Maximum (%) (HiBit-BRM fusion protein): A (“A” indicates maximum degradation ≥75%)
- DC50 (HiBit-BRM fusion protein): < 10 nM
- Dmax [1]: < 50%
- DC50 [1]: > 1000 nM

Structure (SMILES): Cc1ncsc1-c1ccc([C@H](C)NC(=O)[C@@H]2C[C@@H](O)CN2C(=O)[C@@H](c2cc(-c3ccc(N4CCC(c5sc6nnc(-c7ccccc7O)cc6c5C)CC4)nn3)no2)C(C)C)cc1 [Compound 57, (2S,4R)-4-hydroxy-1-((R)-2-(3-(6-(4-(3-(2-hydroxyphenyl)-5-methylthieno[2,3-c]pyridazin-6-yl)piperidin-1-yl)pyridazin-3-yl)isoxazol-5-yl)-3-methylbutanoyl)-N-((S)-1-(4-(4-methylthiazol-5-yl)phenyl)ethyl)pyrrolidine-2-carboxamide]
- BRM HiBit Degradation Maximum (%) (HiBit-BRM fusion protein): A (“A” indicates maximum degradation ≥75%)
- DC50 (HiBit-BRM fusion protein): < 10 nM
- Dmax [1]: < 50%
- DC50 [1]: > 1000 nM

Structure (SMILES): Cc1ncsc1-c1ccc([C@H](C)NC(=O)[C@@H]2C[C@@H](O)CN2C(=O)[C@@H](c2cc(-c3ccc(N4CC(c5sc6nnc(-c7ccccc7O)cc6c5C)C4)nn3)no2)C(C)C)cc1 [Compound 50, (2S,4R)-4-hydroxy-1-((R)-2-(3-(6-(3-(3-(2-hydroxyphenyl)-5-methylthieno[2,3-c]pyridazin-6-yl)azetidin-1-yl)pyridazin-3-yl)isoxazol-5-yl)-3-methylbutanoyl)-N-((S)-1-(4-(4-methylthiazol-5-yl)phenyl)ethyl)pyrrolidine-2-carboxamide]
- BRM HiBit Degradation Maximum (%) (HiBit-BRM fusion protein): A (“A” indicates maximum degradation ≥75%)
- DC50 (HiBit-BRM fusion protein): > 10 nM
- Dmax [1]: < 50%
- DC50 [1]: > 1000 nM

Structure (SMILES): Cc1ncsc1-c1ccc([C@H](C)NC(=O)[C@@H]2C[C@@H](O)CN2C(=O)[C@@H](c2cc(-c3cnc(N4CC[C@@H](c5sc6nnc(-c7ccccc7O)cc6c5C5CC5)C4)nc3)no2)C(C)C)cc1 [Compound 75, (2S,4R)-1-((R)-2-(3-(2-((R)-3-(5-cyclopropyl-3-(2-hydroxyphenyl)thieno [2,3-c]pyridazin-6-yl)pyrrolidin-1-yl)pyrimidin-5-yl)isoxazol-5-yl)-3-methylbutanoyl)-4-hydroxy-N-((S)-1-(4-(4-methylthiazol-5-yl)phenyl)ethyl)pyrrolidine-2-carboxamide]
- BRM HiBit Degradation Maximum (%) (HiBit-BRM fusion protein): B (“B” indicates maximum degradation ≥50%)
- DC50 (HiBit-BRM fusion protein): > 10 nM
- Dmax [1]: < 50%
